In assay [1] the target is T1, Human CXCR4 transfected HEK293 cells (Homo sapiens, UniProt P61073).
T1 construct: expressed in transfected cells; host or cells: HEK293
Kind of assay: CXCR4 functional calcium assay (calcium flux FLIPR, antagonism of SDF1 response). In kind it is cell-based. As to conditions: CXCR4 functional activity, antagonism of SDF1 (EC50 concentration), read-out: CXCR4 fKi. An outline of the steps:
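HEK293 cells stably transfected with human CXCR4 were loaded with 2 μM Fluo-4 AM in HBSS containing 2.5 mM probenecid, 0.1% BSA and 10 mM HEPES at pH 7.4 and 37° C. Compound was added first, then SDF1 at its EC50 concentration, and intracellular calcium fluorescence was followed on a FLIPR. Antagonist dose-response curves were fitted.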

For assay [2], the system named is HIV-1IIIB (CXCR4-tropic) virus. Kind of assay: CXCR4-tropic HIV-1 attachment assay in MAGI-CCR5 cells (β-galactosidase reporter). The following applies: Human immunodeficiency virus 1, MAGI-CCR5, read-out: IC50, inhibition of attachment of CXCR4-tropic HIV-1. It is filed as cell-based. The method, then: Example 30 was tested in an HIV attachment assay, which detects compounds that block HIV-1IIIB (CXCR4-tropic) virus attachment to cells.
The CXCR4-tropic HIV-1 attachment assay uses MAGI-CCR5 cells that naturally express CXCR4 which were engineered to express high levels of CD4 and CCR5 and to contain one copy of the HIV-1 LTR promoter driving expression of the β-galactosidase gene upon HIV-1 Tat transactivation. Cells are incubated with Example 30 and the CXCR4-tropic virus HIV-1IIIB for 3 hours before washing to remove drug and unbound virus. Fresh media is added and the plates are incubated for 48 hours after which antiviral efficacy is measured as the inhibition of β-galactosidase reporter expression and cytotoxicity is monitored by MTS staining.

For another assay, the system named is HIV-1IIIB (CXCR4-tropic). Kind of assay: HIV anti-viral assay in MAGI-CCR5 cells (β-galactosidase reporter). It is filed as cell-based. The following applies: Human immunodeficiency virus 1, 48 hours with compound and virus, read-out: IC50, HIV-1 antiviral activity. The method, then: Example 30 was also tested in an HIV antiviral assay that detects compounds that block HIV-1IIIB (CXCR4-tropic) replication via targets in the viral life cycle. The anti-viral assay uses MAGI-CCR5 cells that naturally express CXCR4 which were engineered to express high levels of CD4 and CCR5 and to contain one copy of the HIV-1 LTR promoter driving expression of the β-galactosidase gene upon HIV 1 Tat transactivation. Cells are incubated with Example 30 and the CXCR4-tropic virus HIV-1IIIB for 48 hours after which antiviral efficacy is measured as the inhibition of β-galactosidase reporter expression and cytotoxicity is monitored by MTS staining.

Assay [3] concerns circulating white blood cells (WBC). Kind of assay: In vivo mobilization of white blood cells (WBC count in peripheral blood). The following applies: C57BL/6 mice. The method, then:
(§1) The study investigated the ability of Example 30 alone and in combination with G-CSF to induce in vivo mobilization of white blood cells in C57BL/6 mice, as well as hematopoietic progenitors from bone marrow to peripheral blood as assessed by the evaluation of the frequency of colony forming cell colonies (CFC). Peripheral blood samples from each test group were collected 1 hour post injection. The white blood cell count (WBC) was determined from the peripheral blood collected for each individual mouse. Clonogenic progenitors of the multipotential (CFU-GEMM) lineages were assessed. Peripheral blood cells were added to MethoCult® 3434 in triplicate cultures for plating (0.5-3×10^5 cells/dish). Cultures were incubated for 8 days at 37° C., 5% CO2 in humidified incubators. CFU-GEMM colony number was enumerated microscopically using an inverted microscope from appropriately plated culture dishes.

Assay [4] concerns multipotential mixed hematopoietic progenitors (CFU-GEMM). Kind of assay: In vivo mobilization of hematopoietic progenitors, colony forming cell assay (CFU-GEMM) from peripheral blood. The following applies: C57BL/6 mice, one hour after treatment, compared to G-CSF treatment alone. On the procedure: as §1
The subject of assay [5] is haematopoietic stem cells. The following applies: donors or patients; background statement; cited from earlier work.

Where only a bound is given, the exact number is not on record here.

The text below walks through data of patent US10995091B2 (Proximagen, LLC, priority 2010, dated 2021).

T1 sequence (P61073 whole entry): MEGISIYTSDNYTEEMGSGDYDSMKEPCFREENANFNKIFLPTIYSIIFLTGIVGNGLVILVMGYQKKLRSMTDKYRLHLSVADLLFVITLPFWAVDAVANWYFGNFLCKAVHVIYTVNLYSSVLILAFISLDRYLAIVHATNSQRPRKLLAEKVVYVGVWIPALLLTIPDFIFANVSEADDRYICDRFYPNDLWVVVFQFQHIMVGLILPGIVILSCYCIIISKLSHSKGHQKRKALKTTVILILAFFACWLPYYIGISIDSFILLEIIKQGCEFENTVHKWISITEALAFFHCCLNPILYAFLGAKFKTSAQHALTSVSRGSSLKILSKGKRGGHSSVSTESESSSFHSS

The term IC50 denotes the concentration that inhibits the measured activity by half. As for `CC(C)N1CCC(N2CCCN(c3cccc(C(=O)Nc4ccncc4)n3)CC2)CC1` [Example 30, 6-{4-[1-(Propan-2-yl)piperidin-4-yl]-1,4-diazepan-1-yl}-N-(pyridin-4-yl)pyridine-2-carboxamide], the Ki in assay [1] was below 20 nM. The IC50 in assay [2] is 40 nM; with HIV-1IIIB (CXCR4-tropic), 30 nM. Besides, the “circulating white blood cells (WBC)” value in assay [3] (1 hour after treatment, compared to vehicle control group) was “significant increase”. In assay [3] (after 1 hour, in combination with G-CSF, compared to G-CSF alone), the “circulating white blood cells (WBC), in combination with G-CSF” value is reported as “significant increase”. For the same molecule, the “multipotential mixed hematopoietic progenitors (CFU-GEMM/ml), in combination with G-CSF” value in assay [4] is given as “significant increase”. Consider `Clc1ccccc1CN1CCC(N2CCCN(c3nccs3)CC2)CC1` [Example 267, 1-{1-[(2-Chlorophenyl)methyl]piperidin-4-yl}-4-(1,3-thiazol-2-yl)-1,4-diazepane], for which the Ki in assay [1] was in the range of 100 to 500 nM. `Cc1cc(C(=O)NCC2CC2)nc(N2CCCN(C3CCN(Cc4ccccc4Cl)CC3)CC2)c1` [Example 268, 6-(4-{1-[(2-Chlorophenyl)methyl]piperidin-4-yl}-1,4-diazepan-1-yl)-N-(cyclopropylmethyl)-4-methylpyridine-2-carboxamide]: the Ki in assay [1] is 100 to 500 nM. For the molecule `O=C(NCC1CC1)c1ccnc(N2CCCN(C3CCN(Cc4ccccc4Cl)CC3)CC2)c1` [Example 269, 2-(4-{1-[(2-chlorophenyl)methyl]piperidin-4-yl}-1,4-diazepan-1-yl)-N-(cyclopropylmethyl)pyridine-4-carboxamide], in assay [1], the Ki lay within 100 to 500 nM.

With `COc1ccc(C(=O)NCC2CC2)nc1N1CCCN(C2CCN(Cc3ccccc3Cl)CC2)CC1` [Example 270, 6-(4-{1-[(2-Chlorophenyl)methyl]piperidin-4-yl}-1,4-diazepan-1-yl)-N-(cyclopropylmethyl)-5-methoxypyridine-2-carboxamide], the Ki in assay [1] lay within 100 to 500 nM. In the case of `c1cc(CN2CCCNCCNCCCNCC2)ccc1CN1CCCNCCNCCCNCC1` [Mozobil], the “success rate of stem cell mobilisation (sufficient yield)” value in assay [5] is around 90%.
